Measurements: patent US10588935B2, “FC receptor (FcRn) binding peptides and uses thereof” (THE BRIGHAM AND WOMEN'S HOSPITAL, INC., priority 2013, dated 2020)
Several values for one entry are separate records, joined by “and”; a condition that tells them apart may be missing. Equal entries are not always repeated. Entries after “also recorded” stand apart in the source; their conditions may differ. Where two headings read alike, the source gives them in different places. Bridge positions count the residues as written; N and C are the ends. Peptide text beside a SMILES is read from it.

Legend:
shFcRn binding to HSA = shFcRn binding to HSA (Homo sapiens, UniProt P55899); test: SPR screening of FcRn binding peptides for inhibition of shFcRn binding to immobilized HSA; conditions: 14 uM peptide, 5 uM shFcRn, pH 6
Experimental: Unreacted sites were then capped by injecting a solution of ethanolamine over the chip surface. A reference flow cell was activated with EDC/NHS and then blocked with ethanolamine.
Samples were injected over the chip for 3 minutes at 20 uL/min followed by a 2.5 minute dissociation phase.

FcRn = FcRn (Homo sapiens, UniProt P55899); test: Competition for albumin or IgG binding to FcRn; set-up: Soluble human FcRn was expressed and purified by Biogen-Idec as previously described (29); conditions: for competition with IgG or albumin for the FcRn binding site: competition experiments / SPR
From the text: Peptide phage libraries, obtained from Dyax Corp, were screened against biotinylated soluble human FcRn bound to streptavidin beads, using 3 rounds of sequential pH 6.0 binding and pH 7.5 elution/amplification protocols. […] Peptide SYN514 was utilized during a 2nd peptide phage screen to occupy this site on FcRn prior to the addition of the phage libraries, and to identify albumin-competitive sequences. This strategy uncovered the albumin-competitive peptide, SYN571, and through structure-activity relationships, the shorter sequence SYN1753 (Ac-[…]-CONH2 (SEQ ID NO: 1) (disulfide) which bound to shFcRn with equivalent affinity as determined by SPR.

soluble human FcRn = target: T1, soluble human FcRn (Homo sapiens, UniProt P55899); test: SPR (Biacore) affinity of peptides for immobilized soluble human FcRn; format: binding
T1 construct: Soluble human FcRn was expressed and purified by Biogen-Idec as previously described (29)
Method in brief: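 FcRn amine-coupled to CM5 chip; binding run at pH 6.0 or 7.4 in 50 mM phosphate, 100 mM NaCl, 0.01% P20, with 5-minute dissociation and pH 8.0 Tris regeneration. KD derived from sensorgrams with a 1:1 binding model; end-of-association responses plotted versus concentration.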

Sequence of FcRn (P55899 24-297 limits assumed): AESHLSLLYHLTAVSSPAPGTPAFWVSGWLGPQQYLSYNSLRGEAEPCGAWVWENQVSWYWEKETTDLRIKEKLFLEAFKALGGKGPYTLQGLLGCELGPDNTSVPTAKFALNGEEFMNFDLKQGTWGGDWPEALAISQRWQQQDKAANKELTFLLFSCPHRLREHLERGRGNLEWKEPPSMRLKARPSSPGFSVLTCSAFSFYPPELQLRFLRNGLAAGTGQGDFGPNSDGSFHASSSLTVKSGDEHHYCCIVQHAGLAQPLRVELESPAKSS
Sequence of FcRn (P61769 21-119 partner): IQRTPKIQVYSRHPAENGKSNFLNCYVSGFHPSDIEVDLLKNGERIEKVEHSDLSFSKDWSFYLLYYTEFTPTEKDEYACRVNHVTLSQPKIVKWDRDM
T1 sequence (P55899 24-297 limits assumed): as the sequence (P55899 24-297 limits assumed) above
T1 sequence (P61769 21-119 partner): as the sequence (P61769 21-119 partner) above
Sequence of shFcRn binding to HSA (P55899 24-297 limits assumed): as the sequence (P55899 24-297 limits assumed) above
Sequence of shFcRn binding to HSA (P61769 21-119 partner): as the sequence (P61769 21-119 partner) above

| Compound | block of shFcRn binding to immobilized HSA (shFcRn binding to HSA) | competition with IgG or albumin for the FcRn binding site (FcRn) | Kd Ratio 7.4/6.0 (soluble human FcRn; Table 1) | Kd (soluble human FcRn; Table 1, pH 6, shFcRn immobilized on the sensor chip, steady state fit, read-out: Kd, pH 6** Biacore) | Kd (soluble human FcRn; Table 1, pH 7.4, shFcRn immobilized, read-out: Kd, pH 7.4 Biacore) | Competition for albumin or IgG binding to FcRn (FcRn; Table 3) | Kd Ratio 7.4/6.0 (soluble human FcRn; Table 2) | Kd (soluble human FcRn; Table 2, pH 6, immobilized shFcRn, data fit steady state or 2 site, read-out: Kd, pH 6** Biacore) | Kd (soluble human FcRn; Table 2, pH 7.4, data only 100 uM, therefore Kd may be higher, read-out: Kd, pH 7.4 Biacore) |
| --- | --- | --- | --- | --- | --- | --- | --- | --- | --- |
| CC(=O)N[C@@H](C)C(=O)NCC(=O)N[C@@H](CCCNC(=N)N)C(=O)N[C@@H](Cc1ccc(O)cc1)C(=O)N[C@@H](Cc1ccccc1)C(=O)N[C@H]1CSSC[C@@H](C(=O)N[C@@H](CCC(=O)O)C(=O)N[C@@H](CCC(=O)O)C(=O)N[C@H](C(=O)NCC(=O)N[C@H](C(=O)NCC(=O)NCC(=O)NCC(=O)N[C@@H](CCCCN)C(N)=O)[C@@H](C)O)C(C)C)NC(=O)[C@H](Cc2c[nH]c3ccccc23)NC(=O)CNC(=O)[C@H](Cc2c[nH]cn2)NC(=O)[C@H](CCCCN)NC(=O)[C@H](Cc2c[nH]c3ccccc23)NC(=O)[C@H](CCCCN)NC(=O)[C@H]([C@@H](C)O)NC1=O [SYN571] (Ac-AGRYFCTKWKHGWCEEVGTGGGK-NH2; disulfide 6-14) | completely block | albumin-competitive; also recorded: inhibit shFcRn:albumin interactions, but not those of IgG: shFcRn | 29 | 450 nM and 500 nM | 13100 nM |  |  |  |  |
| CSCC[C@H](NC(=O)[C@@H](NC(C)=O)C(C)C)C(=O)N[C@@H](Cc1c[nH]cn1)C(=O)N[C@H]1CSSC[C@@H](C(=O)N[C@@H](CCC(=O)O)C(=O)N[C@@H](Cc2ccc(O)cc2)C(=O)N[C@H](C(N)=O)C(C)C)NC(=O)[C@H](CCCNC(=N)N)NC(=O)[C@H](Cc2ccccc2)NC(=O)[C@H](CCC(=O)O)NC(=O)[C@H](CCC(=O)O)NC(=O)[C@H](CC(=O)O)NC(=O)[C@H](Cc2c[nH]c3ccccc23)NC(=O)[C@H](Cc2ccccc2)NC1=O [SYN1383] (Ac-VMHCFWDEEFRCEYV-NH2; disulfide 4-12 (inferred)) | not able to block the binding of shFcRn to HSA | not been shown to be competitive with IgG or any other proteins; also recorded: does not block IgG binding to FcRn; also recorded: non-IgG, non-albumin competitive |  |  |  | none | 34 | 32 nM | 1100 nM |
| Ac-AGVMHCFWDEEFKCDQGGTGGGK-CONH2 (Ac-AGVMHCFWDEEFKCDQGGTGGGK-NH2; disulfide 6-14 (inferred)) [SYN514] |  | non-IgG, non-albumin competitive |  |  |  |  |  |  |  |
